According to ChEMBL document CHEMBL1140667, “Pyrrolidino-tetrahydroisoquinolines bearing pendant heterocycles as potent dual H3 antagonist and serotonin transporter inhibitors” (Bioorg Med Chem Lett, 2007):

Columns and labels:
Histamine H3 receptor [1] = biological target: T1, Histamine H3 receptor (Homo sapiens, UniProt Q9Y5N1); test: Antagonist activity at human histamine H3 receptor; format: functional; conditions: read-out: pA2 (converted)
Histamine H3 receptor [2] = biological target: T1, Histamine H3 receptor; test: Binding affinity to human histamine H3 receptor
[3] = Ratio of log AUC in brain to plasma in mouse at 10 mg/kg, ip; format: ADME, organism-based; design: dose 10 mg/kg, route intraperitoneal; conditions: brain and plasma, read-out: BPR
[4] = biological target: Sodium-dependent dopamine transporter (Homo sapiens, UniProt Q01959); test: Binding affinity to DAT
[5] = biological target: Sodium-dependent noradrenaline transporter (Homo sapiens, UniProt P23975); test: Binding affinity to NET
[6] = biological target: Kappa-type opioid receptor (Homo sapiens, UniProt P41145); test: Binding affinity to kappa opioid receptor
Rattus norvegicus [7] = test: Increase in 5-hydroxytryptamine level in rat brain at 3 mg/kg, sc within 4 hrs relative to basal level; format: ADME, organism-based; design: dose 3 mg/kg, route subcutaneous; conditions: in vivo
Rattus norvegicus [8] = test: Increase in dopamine level in rat brain at 3 mg/kg, sc within 4 hrs relative to basal level; format: ADME, organism-based; design: dose 3 mg/kg, route subcutaneous; conditions: in vivo
[9] = Plasma concentration in mouse at 10 mg/kg, ip after 15 mins; format: ADME, organism-based; design: dose 10 mg/kg, route intraperitoneal
[10] = Drug level in mouse brain at 10 mg/kg, ip after 2 hrs; format: ADME, organism-based; design: dose 10 mg/kg, route intraperitoneal; conditions: read-out: Drug uptake
[11] = Mean residence time in mouse plasma at 10 mg/kg, ip; format: ADME, organism-based; design: dose 10 mg/kg, route intraperitoneal
[12] = Mean residence time in mouse brain at 10 mg/kg, ip; format: ADME, organism-based; design: dose 10 mg/kg, route intraperitoneal

T1 sequence (Q9Y5N1 whole entry): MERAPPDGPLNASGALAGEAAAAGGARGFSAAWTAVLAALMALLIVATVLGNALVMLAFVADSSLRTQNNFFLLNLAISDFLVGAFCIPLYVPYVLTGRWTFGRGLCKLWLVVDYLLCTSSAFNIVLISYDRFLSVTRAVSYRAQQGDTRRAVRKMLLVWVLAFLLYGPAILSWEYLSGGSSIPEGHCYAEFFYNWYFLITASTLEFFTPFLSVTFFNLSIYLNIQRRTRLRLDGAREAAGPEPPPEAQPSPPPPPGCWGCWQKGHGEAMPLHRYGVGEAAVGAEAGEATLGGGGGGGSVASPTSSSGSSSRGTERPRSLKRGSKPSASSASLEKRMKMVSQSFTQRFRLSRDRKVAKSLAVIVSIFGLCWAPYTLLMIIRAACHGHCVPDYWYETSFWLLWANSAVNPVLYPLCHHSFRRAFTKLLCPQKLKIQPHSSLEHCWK
Sodium-dependent noradrenaline transporter, sequence (P23975 whole entry): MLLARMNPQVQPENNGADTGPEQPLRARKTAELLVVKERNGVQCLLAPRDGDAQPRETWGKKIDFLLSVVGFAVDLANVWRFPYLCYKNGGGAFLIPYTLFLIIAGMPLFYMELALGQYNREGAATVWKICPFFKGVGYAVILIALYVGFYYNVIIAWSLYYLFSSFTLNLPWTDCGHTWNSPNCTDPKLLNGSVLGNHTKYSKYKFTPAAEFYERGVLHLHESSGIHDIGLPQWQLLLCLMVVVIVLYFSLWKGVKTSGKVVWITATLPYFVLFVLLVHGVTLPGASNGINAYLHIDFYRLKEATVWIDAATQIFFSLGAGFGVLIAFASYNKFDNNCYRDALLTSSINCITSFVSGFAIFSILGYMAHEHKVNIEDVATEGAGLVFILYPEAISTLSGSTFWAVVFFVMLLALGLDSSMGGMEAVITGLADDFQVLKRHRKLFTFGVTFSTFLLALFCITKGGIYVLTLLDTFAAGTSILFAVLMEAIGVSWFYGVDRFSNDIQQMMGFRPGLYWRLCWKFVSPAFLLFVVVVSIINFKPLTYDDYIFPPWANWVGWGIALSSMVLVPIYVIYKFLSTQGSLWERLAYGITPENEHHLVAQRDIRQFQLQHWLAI
Sodium-dependent dopamine transporter, sequence (Q01959 whole entry): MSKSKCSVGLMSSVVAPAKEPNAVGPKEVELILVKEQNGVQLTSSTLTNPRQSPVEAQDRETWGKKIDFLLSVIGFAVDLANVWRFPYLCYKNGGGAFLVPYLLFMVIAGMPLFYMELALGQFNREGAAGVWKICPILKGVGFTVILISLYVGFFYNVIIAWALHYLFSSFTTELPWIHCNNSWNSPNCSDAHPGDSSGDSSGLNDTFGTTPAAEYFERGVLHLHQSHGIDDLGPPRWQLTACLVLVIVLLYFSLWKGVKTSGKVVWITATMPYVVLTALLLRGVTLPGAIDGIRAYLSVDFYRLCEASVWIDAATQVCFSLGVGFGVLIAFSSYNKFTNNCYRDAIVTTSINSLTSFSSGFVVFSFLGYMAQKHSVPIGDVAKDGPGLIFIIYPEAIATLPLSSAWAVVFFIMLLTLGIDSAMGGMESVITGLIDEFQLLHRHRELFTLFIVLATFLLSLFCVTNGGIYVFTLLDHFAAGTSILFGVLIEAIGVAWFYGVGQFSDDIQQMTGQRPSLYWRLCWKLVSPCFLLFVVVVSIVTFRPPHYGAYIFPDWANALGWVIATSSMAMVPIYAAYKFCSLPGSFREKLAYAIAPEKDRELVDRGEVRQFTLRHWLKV
Kappa-type opioid receptor, sequence (P41145 whole entry): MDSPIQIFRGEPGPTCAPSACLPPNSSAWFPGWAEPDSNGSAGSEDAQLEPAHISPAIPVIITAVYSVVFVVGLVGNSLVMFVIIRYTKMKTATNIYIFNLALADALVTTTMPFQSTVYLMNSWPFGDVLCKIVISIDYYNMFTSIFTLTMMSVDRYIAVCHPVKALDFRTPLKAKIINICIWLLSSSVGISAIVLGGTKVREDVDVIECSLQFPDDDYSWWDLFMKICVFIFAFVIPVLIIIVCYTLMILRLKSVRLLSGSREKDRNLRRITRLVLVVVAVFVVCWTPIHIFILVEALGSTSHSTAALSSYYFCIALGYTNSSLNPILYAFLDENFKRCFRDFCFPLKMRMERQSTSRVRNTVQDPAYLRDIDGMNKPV

Row | SMILES | Kb (Histamine H3 receptor [1]) [nM] | Ki (Histamine H3 receptor [2]) [nM] | other results
1 | c1ccn2c([C@@H]3CN4CCC[C@@H]4c4cc(OCCCN5CCOCC5)ccc43)cnc2c1 | 3.16 | 2 | –
2 | c1cn(-c2ccc([C@@H]3CN4CCC[C@@H]4c4cc(OCCCN5CCOCC5)ccc43)cc2)cn1 | 3.16 | 5.7 | –
3 | c1ncc([C@@H]2CN3CCC[C@@H]3c3cc(OCCCN4CCOCC4)ccc32)s1 | 3.16 | 3.7 | –
4 | c1ccc([C@@H]2CN3CCC[C@@H]3c3cc(OCCCN4CCOCC4)ccc32)nc1 | 3.16 | 2.7 | –
5 | c1cncc([C@@H]2CN3CCC[C@@H]3c3cc(OCCCN4CCCCC4)ccc32)c1 | 3.16 | 0.8 | Kp [3]: 0.75; Ki [4]: 107 nM; Ki [5]: 460 nM; Ki [6]: 74 nM; Activity (Rattus norvegicus [7]): 300%; Activity (Rattus norvegicus [8]): 500%; concentration at 0.25 h [9]: 1430 nM; concentration at 2 h [10]: 920 nM; MRT [11]: 6.57 h; MRT [12]: 31.3 h
6 | c1ccc([C@@H]2CN3CCC[C@@H]3c3cc(OCCCN4CCCCC4)ccc32)nc1 | 3.16 | 0.8 | –
7 | c1csc([C@@H]2CN3CCC[C@@H]3c3cc(OCCCN4CCOCC4)ccc32)n1 | 3.16 | 3.3 | –
8 | c1cnn(-c2ccc([C@@H]3CN4CCC[C@@H]4c4cc(OCCCN5CCOCC5)ccc43)cc2)c1 | 3.16 | 5.3 | –
9 | c1cc([C@@H]2CN3CCC[C@@H]3c3cc(OCCCN4CCCCC4)ccc32)ccn1 | 3.16 | 1 | –
10 | c1cc([C@@H]2CN3CCC[C@@H]3c3cc(OCCCN4CCOCC4)ccc32)[nH]n1 | 3.16 | 4 | –
11 | c1cnc([C@@H]2CN3CCC[C@@H]3c3cc(OCCCN4CCOCC4)ccc32)cn1 | 3.16 | 4 | –
12 | c1cc([C@@H]2CN3CCC[C@@H]3c3cc(OCCCN4CCOCC4)ccc32)cs1 | 3.16 | 3 | –
13 | c1cncc([C@@H]2CN3CCC[C@@H]3c3cc(OCCCN4CCOCC4)ccc32)c1 | 3.16 | 1.6 | –
